Read-outs that look alike come from different tables or passages of the source.
Assays:
K. oxytoca = test system: K. oxytoca; set-up: key: previously determined antibiotic resistance (shown with “X”); details: cited from earlier work
P. aeruginosa = test system: P. aeruginosa; set-up: key: previously determined antibiotic resistance (shown with “X”); details: cited from earlier work
K. pneumoniae = test system: K. pneumoniae; set-up: key: previously determined antibiotic resistance (shown with “X”); details: cited from earlier work
P. mirabilis = test system: P. mirabilis; set-up: key: previously determined antibiotic resistance (shown with “X”); details: cited from earlier work
E. coli = test system: E. coli; set-up: key: previously determined antibiotic resistance (shown with “X”); details: cited from earlier work
[1] = test system: K. pneumonaie strain in clinical urine sample BIUR0084; experiment: automated MultiPath AST cartridge on clinical urine, Example 8; format: cell-based, K. pneumoniae; details: for sensitive/resistant call by MulitPath: clinical urine BIUR0084, 4 h growth, fold growth value of 2; for growth call at all antibiotic concentrations (MulitPath assay): clinical urine BIUR0084, fold growth value of 2, 4 h
E. coli BAA-2469 [2] = test system: E. coli BAA-2469; set-up: unit not given beside the values; details: E. coli BAA-2469, regardless of the amount of S. aureus ATCC 25923 cells
E. coli BAA-2469 [3] = test system: E. coli BAA-2469; set-up: unit not given beside the values
Description: Comparison Method: Results for the novel assay method described here were compared to broth microdilutions (BMD) performed according the […] 2018.

| Molecule | previously determined antibiotic resistance (K. oxytoca; K. oxytoca CDC0028) | previously determined antibiotic resistance (K. oxytoca; K. oxytoca CDC0071) | previously determined antibiotic resistance (K. oxytoca; K. oxytoca CDC0147) | previously determined antibiotic resistance (P. aeruginosa; P. aeruginosa ATCC27853) | previously determined antibiotic resistance (P. aeruginosa; P. aeruginosa CDC0251) | previously determined antibiotic resistance (P. aeruginosa; P. aeruginosa CDC0253) | previously determined antibiotic resistance (K. pneumoniae; K. pneumoniae ATCC13883) | previously determined antibiotic resistance (K. pneumoniae; K. pneumoniae CDC0016) | previously determined antibiotic resistance (K. pneumoniae; K. pneumoniae CDC0034) | previously determined antibiotic resistance (K. pneumoniae; K. pneumoniae CDC0076) | previously determined antibiotic resistance (K. pneumoniae; K. pneumoniae CDC0117) | previously determined antibiotic resistance (K. pneumoniae; K. pneumoniae CDC0126) | previously determined antibiotic resistance (P. mirabilis; P. mirabilis ATCC7002) | previously determined antibiotic resistance (P. mirabilis; P. mirabilis CDC0029) | previously determined antibiotic resistance (P. mirabilis; P. mirabilis CDC0059) | previously determined antibiotic resistance (P. mirabilis; P. mirabilis CDC0155) | previously determined antibiotic resistance (P. mirabilis; P. mirabilis CDC0156) | previously determined antibiotic resistance (P. mirabilis; P. mirabilis CDC0159) | previously determined antibiotic resistance (E. coli; E. coli ATCC25922) | previously determined antibiotic resistance (K. pneumoniae; K. pneumoniae CDC0010) | further results |
| --- | --- | --- | --- | --- | --- | --- | --- | --- | --- | --- | --- | --- | --- | --- | --- | --- | --- | --- | --- | --- | --- |
| O=C(O)c1cn(C2CC2)c2cc(N3CCNCC3)c(F)cc2c1=O [Ciprofloxacin] | X | X | X | X | X | X | X | X | X | X | X | X | X | X | X | X | X | X | X | – | previously determined antibiotic resistance (P. aeruginosa; P. aeruginosa CDC0259): X; previously determined antibiotic resistance (P. aeruginosa; P. aeruginosa CDC0261): X; previously determined antibiotic resistance (P. aeruginosa; P. aeruginosa CDC0262): X; previously determined antibiotic resistance (E. coli; E. coli BAA-2452): X; previously determined antibiotic resistance (E. coli; E. coli BAA-2469): X; previously determined antibiotic resistance (E. coli; E. coli BAA-2471): X; previously determined antibiotic resistance (E. coli; E. coli CDC0017): X; previously determined antibiotic resistance (E. coli; E. coli CDC0019): X |
| Trimethoprim/Sulfamethoxazole | X | X | X | – | – | – | X | X | – | – | X | X | X | X | X | X | X | X | X | X | sensitive/resistant call by MulitPath [1]: resistant; growth call at all antibiotic concentrations (MulitPath assay) [1]: growth; previously determined antibiotic resistance (K. pneumoniae; K. pneumoniae CDC0107): X; previously determined antibiotic resistance (E. coli; E. coli BAA-2469): X; previously determined antibiotic resistance (E. coli; E. coli BAA-2471): X; previously determined antibiotic resistance (E. coli; E. coli CDC0017): X; previously determined antibiotic resistance (E. coli; E. coli CDC0019): X; previously determined antibiotic resistance (E. coli; E. coli CDC0084): X |
| C[C@@H](O)[C@H]1C(=O)N2C(C(=O)O)=C(S[C@@H]3CN[C@H](C(=O)N(C)C)C3)[C@H](C)[C@H]12 [Meropenem] | X | X | X | – | – | – | X | X | X | X | – | – | X | X | X | X | X | X | X | X | previously determined antibiotic resistance (P. aeruginosa; P. aeruginosa CDC0105): X; previously determined antibiotic resistance (P. aeruginosa; P. aeruginosa CDC0111): X; previously determined antibiotic resistance (P. aeruginosa; P. aeruginosa CDC0232): X; previously determined antibiotic resistance (P. aeruginosa; P. aeruginosa CDC0242): X; previously determined antibiotic resistance (P. aeruginosa; P. aeruginosa CDC0247): X; previously determined antibiotic resistance (K. pneumoniae; K. pneumoniae CDC0043): X; previously determined antibiotic resistance (K. pneumoniae; K. pneumoniae CDC0080): X; previously determined antibiotic resistance (E. coli; E. coli CDC0001): X; previously determined antibiotic resistance (E. coli; E. coli CDC0006): X; previously determined antibiotic resistance (E. coli; E. coli CDC0020): X; previously determined antibiotic resistance (E. coli; E. coli CDC0085): X; previously determined antibiotic resistance (E. coli; E. coli CDC0114): X |
| O=C1CN(/N=C/c2ccc([N+](=O)[O-])o2)C(=O)N1 [Nitrofurantoin] | – | – | – | – | – | – | – | – | – | – | – | – | – | – | – | – | – | – | – | – | MIC, novel 4-hour AST assay (MultiPath) (E. coli BAA-2469 [2]): 8; MIC, CLSI-like broth microdilution (E. coli BAA-2469 [3]; E. coli BAA-2469, in the absence of S. aureus): 8; MIC, CLSI-like broth microdilution (E. coli BAA-2469 [3]; E. coli BAA-2469, with a 100-fold excess of S. aureus ATCC 25923): 32 |
| Cc1nnc(SCC2=C(C(=O)O)N3C(=O)[C@@H](NC(=O)Cn4cnnn4)[C@H]3SC2)s1 [Cefazolin] | – | – | – | – | – | – | – | – | – | – | – | – | – | – | – | – | – | – | – | – | sensitive/resistant call by MulitPath [1]: resistant; growth call at all antibiotic concentrations (MulitPath assay) [1]: growth |
| CC(C)(O/N=C(\C(=O)N[C@@H]1C(=O)N2C(C(=O)[O-])=C(C[n+]3ccccc3)CS[C@H]12)c1csc(N)n1)C(=O)O [Ceftazidime] | X | X | X | X | X | X | X | X | – | – | – | X | X | X | X | X | X | X | X | X | previously determined antibiotic resistance (P. aeruginosa; P. aeruginosa CDC0105): X; previously determined antibiotic resistance (P. aeruginosa; P. aeruginosa CDC0111): X; previously determined antibiotic resistance (P. aeruginosa; P. aeruginosa CDC0242): X; previously determined antibiotic resistance (K. pneumoniae; K. pneumoniae CDC0041): X; previously determined antibiotic resistance (K. pneumoniae; K. pneumoniae CDC0107): X; previously determined antibiotic resistance (K. pneumoniae; K. pneumoniae CDC0160): X; previously determined antibiotic resistance (E. coli; E. coli CDC0020): X; previously determined antibiotic resistance (E. coli; E. coli CDC0067): X; previously determined antibiotic resistance (E. coli; E. coli CDC0084): X; previously determined antibiotic resistance (E. coli; E. coli CDC0086): X; previously determined antibiotic resistance (E. coli; E. coli CDC0350): X |

Reference: US12704506B2, “Microbial analysis without cell purification” (First Light Diagnostics, Inc., priority 2018, dated 2026)
